Laboratory results reported in the supplement of paper PMC10307832.

How the values were obtained:
Experiment in all cases: relative viability (nuclei count vs DMSO), 5 days (fraction); higher = more cells survive
NCI-H2342 = test system: NCI-H2342
Outline: (§1)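 Each reported value is a median over duplicate plates. It expresses relative viability: treated-well nuclei count divided by vehicle-well nuclei count. Lung cancer cell lines in 1536-well plates were dosed by pin tool a day after seeding, alone with one drug or with a fixed anchor-drug dose plus five library-drug doses (not always all listed) in √10 steps, and nuclei were counted after 5 days.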

NCI-H1395 = test system: NCI-H1395
Outline: as §1

HARA = test system: HARA
Outline: as §1

NCI-H1437 = test system: NCI-H1437
Outline: as §1

NCI-H2009 = test system: NCI-H2009
Outline: as §1

LOU-NH91 = test system: LOU-NH91
Outline: as §1

SK-LU-1 = test system: SK-LU-1
Outline: as §1

NCI-H2170 = test system: NCI-H2170
Outline: as §1

BEN = test system: BEN
Outline: as §1

HCC-827 = test system: HCC-827
Outline: as §1

NCI-H661 = test system: NCI-H661
Outline: as §1

NCI-H1355 = test system: NCI-H1355
Outline: as §1

NCI-H2405 = test system: NCI-H2405
Outline: as §1

NCI-H1734 = test system: NCI-H1734
Outline: as §1

NCI-H2087 = test system: NCI-H2087
Outline: as §1

LC-2-ad = test system: LC-2-ad
Outline: as §1

SK-MES-1 = test system: SK-MES-1
Outline: as §1

NCI-H2228 = test system: NCI-H2228
Outline: as §1

EKVX = test system: EKVX
Outline: as §1

NCI-H647 = test system: NCI-H647
Outline: as §1

NCI-H1792 = test system: NCI-H1792
Outline: as §1

HCC-366 = test system: HCC-366
Outline: as §1

O=C(O)c1ccc(-c2c[nH]c3ncc(-c4ccccc4)cc23)cc1C1CCCC1 + CC(=O)c1c(C)c2cnc(Nc3ccc(N4CCNCC4)cn3)nc2n(C2CCCC2)c1=O [Palbociclib] (partner 0.5 µM)
relative viability (NCI-H2342; first compound 0.04 µM): 0.465 | relative viability (NCI-H2342; first compound 0.1265 µM): 0.568 | relative viability (NCI-H2342; first compound 0.4 µM): 0.479 | relative viability (NCI-H2342; first compound 1.265 µM): 0.517 | relative viability (NCI-H1395; first compound 0.04 µM): 0.567 | relative viability (NCI-H1395; first compound 0.1265 µM): 0.66 | relative viability (NCI-H1395; first compound 0.4 µM): 0.618 | relative viability (NCI-H1395; first compound 1.265 µM): 0.567 | relative viability (HARA; first compound 0.04 µM): 0.308 | relative viability (HARA; first compound 0.1265 µM): 0.267 | relative viability (HARA; first compound 0.4 µM): 0.248 | relative viability (HARA; first compound 1.265 µM): 0.216 | relative viability (NCI-H1437; first compound 0.04 µM): 0.326 | relative viability (NCI-H1437; first compound 0.1265 µM): 0.319 | relative viability (NCI-H1437; first compound 0.4 µM): 0.311 | relative viability (NCI-H1437; first compound 1.265 µM): 0.193 | relative viability (NCI-H2009; first compound 0.04 µM): 0.152 | relative viability (NCI-H2009; first compound 0.1265 µM): 0.246 | relative viability (NCI-H2009; first compound 0.4 µM): 0.175 | relative viability (NCI-H2009; first compound 1.265 µM): 0.209 | relative viability (LOU-NH91; first compound 0.04 µM): 0.593 | relative viability (LOU-NH91; first compound 0.1265 µM): 0.517 | relative viability (LOU-NH91; first compound 0.4 µM): 0.525 | relative viability (LOU-NH91; first compound 1.265 µM): 0.469 | relative viability (SK-LU-1; first compound 0.04 µM): 0.358 | relative viability (SK-LU-1; first compound 0.1265 µM): 0.381 | relative viability (SK-LU-1; first compound 0.4 µM): 0.366 | relative viability (SK-LU-1; first compound 1.265 µM): 0.359 | relative viability (NCI-H2170; first compound 0.04 µM): 0.387 | relative viability (NCI-H2170; first compound 0.1265 µM): 0.438 | relative viability (NCI-H2170; first compound 0.4 µM): 0.39 | relative viability (NCI-H2170; first compound 1.265 µM): 0.389 | relative viability (BEN; first compound 0.04 µM): 0.459 | relative viability (BEN; first compound 0.1265 µM): 0.422 | relative viability (BEN; first compound 0.4 µM): 0.455 | relative viability (BEN; first compound 1.265 µM): 0.454 | relative viability (HCC-827; first compound 0.04 µM): 0.354 | relative viability (HCC-827; first compound 0.1265 µM): 0.474 | relative viability (HCC-827; first compound 0.4 µM): 0.434 | relative viability (HCC-827; first compound 1.265 µM): 0.328 | relative viability (NCI-H661; first compound 0.04 µM): 0.414 | relative viability (NCI-H661; first compound 0.1265 µM): 0.411 | relative viability (NCI-H661; first compound 0.4 µM): 0.406 | relative viability (NCI-H661; first compound 1.265 µM): 0.389 | relative viability (NCI-H1355; first compound 0.04 µM): 0.393 | relative viability (NCI-H1355; first compound 0.1265 µM): 0.406 | relative viability (NCI-H1355; first compound 0.4 µM): 0.407 | relative viability (NCI-H1355; first compound 1.265 µM): 0.395 | relative viability (NCI-H2405; first compound 0.04 µM): 0.529 | relative viability (NCI-H2405; first compound 0.1265 µM): 0.557 | relative viability (NCI-H2405; first compound 0.4 µM): 0.517 | relative viability (NCI-H2405; first compound 1.265 µM): 0.473 | relative viability (NCI-H1734; first compound 0.04 µM): 0.324 | relative viability (NCI-H1734; first compound 0.1265 µM): 0.328 | relative viability (NCI-H1734; first compound 0.4 µM): 0.302 | relative viability (NCI-H1734; first compound 1.265 µM): 0.344 | relative viability (NCI-H2087; first compound 0.04 µM): 0.214 | relative viability (NCI-H2087; first compound 0.1265 µM): 0.267 | relative viability (NCI-H2087; first compound 0.4 µM): 0.214 | relative viability (NCI-H2087; first compound 1.265 µM): 0.248 | relative viability (LC-2-ad; first compound 0.04 µM): 0.425 | relative viability (LC-2-ad; first compound 0.1265 µM): 0.541 | relative viability (LC-2-ad; first compound 0.4 µM): 0.489 | relative viability (LC-2-ad; first compound 1.265 µM): 0.42 | relative viability (SK-MES-1; first compound 0.04 µM): 0.335 | relative viability (SK-MES-1; first compound 0.1265 µM): 0.288 | relative viability (SK-MES-1; first compound 0.4 µM): 0.303 | relative viability (SK-MES-1; first compound 1.265 µM): 0.265 | relative viability (NCI-H2228; first compound 0.04 µM): 0.885 | relative viability (NCI-H2228; first compound 0.1265 µM): 0.736 | relative viability (NCI-H2228; first compound 0.4 µM): 0.886 | relative viability (NCI-H2228; first compound 1.265 µM): 0.5 | relative viability (EKVX; first compound 0.04 µM): 0.444 | relative viability (EKVX; first compound 0.1265 µM): 0.379 | relative viability (EKVX; first compound 0.4 µM): 0.233 | relative viability (EKVX; first compound 1.265 µM): 0.362 | relative viability (NCI-H647; first compound 0.04 µM): 0.399 | relative viability (NCI-H647; first compound 0.1265 µM): 0.434 | relative viability (NCI-H647; first compound 0.4 µM): 0.453 | relative viability (NCI-H647; first compound 1.265 µM): 0.33 | relative viability (NCI-H1792; first compound 0.1265 µM): 0.681 | relative viability (NCI-H1792; first compound 0.4 µM): 0.657 | relative viability (NCI-H1792; first compound 1.265 µM): 0.691 | relative viability (HCC-366; first compound 0.04 µM): 0.442 | relative viability (HCC-366; first compound 0.1265 µM): 0.43 | relative viability (HCC-366; first compound 0.4 µM): 0.416 | relative viability (HCC-366; first compound 1.265 µM): 0.346
